{"source": "paper PMC6723440", "about": "(Toxins, 2019)", "key": {"[1]": {"conditions": "human; for percentage of metabolized parent toxin in phase I reactions: microsomes, 1 h"}, "[2]": {"conditions": "human; cited from earlier work"}, "[3]": {"conditions": "human, pH 7.4"}, "[4]": {"conditions": "in vivo; cited from earlier work"}, "[5]": {"conditions": "human, pH 7.4", "remark": "listed apart in the source"}}, "note": "Where two headings read alike, the source gives them in different places.", "data": [{"smiles": "CC(=O)O[C@@H]1C[C@]2(C)[C@@]3(CO)[C@H](O)C(=O)C(C)=C[C@H]3O[C@H]1[C@@]21CO1", "note": "[3-AcDON, 3-acetyldeoxynivalenol]", "values": [{"measurement": "converted into DON", "setting": "[1]; pH 7.4", "value": 50, "unit": "%"}, {"measurement": "metabolized to DON", "setting": "[2]", "value": 78, "unit": "%"}, {"measurement": "LC-MS Library: metabolites generated", "setting": "[3]", "value": "Phase I metabolites: DON Glucuronides: Gluc-3-AcDON"}]}, {"smiles": "CC(=O)OC[C@]12[C@H](O)C(=O)C(C)=C[C@H]1O[C@@H]1[C@H](O)C[C@@]2(C)[C@]12CO2", "note": "[15-AcDON, 15-acetyldeoxynivalenol]", "values": [{"measurement": "converted into DON", "setting": "[1]; pH 7.4", "value": 1, "unit": "%"}, {"measurement": "LC-MS Library: metabolites generated", "setting": "[3]", "value": "Phase I metabolites: DON Glucuronides: Gluc-15-AcDON"}]}, {"smiles": "CC1=C[C@H]2O[C@@H]3[C@H](O)C[C@](C)([C@@]2(CO)[C@H](O)C1=O)[C@]31CO1", "note": "[DON, deoxynivalenol]", "values": [{"measurement": "predominant species in urine", "setting": "[4]", "value": 27, "unit": "%"}, {"measurement": "total urinary DON present as free DON", "setting": "[4]", "value": 27.4, "unit": "%"}, {"measurement": "total urinary deoxynivalenol (DON) composed of its glucuronides (15-Gluc-DON and 3-Gluc-DON)", "setting": "[4]", "value": "approximately 72.6%"}, {"measurement": "converted into DNIV", "setting": "[1]; pH 7.4", "value": "less than 1%"}, {"measurement": "LC-MS Library: metabolites generated", "setting": "[3]", "value": "Phase I metabolites: NIV, DOM-1 and its two isomers, Glucuronides: 15-Gluc-DON, 3-Gluc-DON"}]}, {"smiles": "CC(=O)OC[C@]12C[C@H](OC(=O)CC(C)C)C(C)=C[C@H]1O[C@@H]1[C@H](O)[C@@H](O)[C@@]2(C)[C@]12CO2", "note": "[HT-2, HT-2 toxin]", "values": [{"measurement": "LC-MS Library: metabolites generated", "setting": "[3]", "value": "Phase I metabolites: 4-de-Ac-NEO and its isomer, 3′-OH-HT-2, 4′-OH-HT-2 and its isomer Three OH-T-2 metabolites at 7 or 10 or 16-OH-HT-2 Two unknown metabolites Glucuronides: Gluc-3-HT-2"}]}, {"smiles": "CC1=C[C@H]2O[C@@H]3[C@H](O)[C@@H](O)[C@](C)([C@@]2(CO)[C@H](O)C1=O)[C@]31CO1", "note": "[NIV, nivalenol]", "values": [{"measurement": "glucuronidation", "setting": "[5]", "value": "< 1", "unit": "%"}, {"measurement": "converted into DNIV", "setting": "[1]; pH 7.4", "value": 5, "unit": "%"}]}, {"smiles": "CC(=O)OCC12CC(OC(=O)CC(C)C)C(C)=CC1OC1C(OC3OC(C(=O)O)C(O)C(O)C3O)C(OC(C)=O)C2(C)C12CO2", "note": "(stereo not drawn) [T-2 glucuronide]", "values": [{"measurement": "share of glucuronide form", "setting": "[5]", "value": 8, "unit": "%"}]}, {"smiles": "C[C@H]1CCCC(=O)CCCCCc2cc(O)cc(O)c2C(=O)O1", "note": "[ZAN, zearalanone]", "values": [{"measurement": "Total Number of Glucuronides", "setting": "[5]", "value": 24}, {"measurement": "converted into glucoronides", "setting": "[5]", "value": 93, "unit": "%"}, {"measurement": "glucuronides of oxidized metabolites and double glucuronides (minor products)", "setting": "[5]", "value": 19, "unit": "%"}, {"measurement": "glucuronides of parent toxins at position C-14", "setting": "[5]", "value": 73, "unit": "%"}, {"measurement": "share of species, Figure 7 pie", "setting": "[5]", "value": 7, "unit": "%"}, {"measurement": "sum of parent glucuronides", "setting": "[5]", "value": 74, "unit": "%"}, {"measurement": "percentage of metabolized parent toxin in phase I reactions", "setting": "[1]; pH 7.4", "value": 66, "unit": "%"}, {"measurement": "Number of Metabolites (n): Desaturation oxidation, −(H2) +(O2)", "setting": "[1]; pH 7.4", "value": 2}, {"measurement": "Number of Metabolites (n): Desaturation, oxidation, −(H2) +(O)", "setting": "[1]; pH 7.4", "value": 1}, {"measurement": "Number of Metabolites (n): Desaturation, oxidation, −(H4) +(O)", "setting": "[1]; pH 7.4", "value": 0}, {"measurement": "Number of Metabolites (n): Oxidation +(O)", "setting": "[1]; pH 7.4", "value": "5(23%)"}, {"measurement": "Number of Metabolites (n): Oxidation, +(O2)", "setting": "[1]; pH 7.4", "value": "6(27%)"}, {"measurement": "Number of Metabolites (n): Oxidation, −(H4) +(O2)", "setting": "[1]; pH 7.4", "value": 0}, {"measurement": "share of Oxidation +(O) metabolites in ∑ n", "setting": "[1]; pH 7.4", "value": "5(23%)"}, {"measurement": "share of Oxidation, +(O2) metabolites in ∑ n", "setting": "[1]; pH 7.4", "value": "6(27%)"}, {"measurement": "share of Reduction, oxidation, +(H2) +(O) metabolites in ∑ n", "setting": "[1]; pH 7.4", "value": "8(36%)"}, {"measurement": "∑ n, total number of oxidized metabolites", "setting": "[1]; pH 7.4", "value": 22}, {"measurement": "LC-MS Library: metabolites generated", "setting": "[3]", "value": "Phase I metabolites: (-(H2) +(O))-ZAN, (+(O))-ZAN, (+(H2)+ (O))-ZAN, (+(O2))-ZAN, (-(H2) +(O2))-ZAN Glucuronides: Gluc-16-ZAN, Gluc-14-ZAN, Gluc-(+O)- ZAN, 2xGluc- ZAN, Gluc-(+(H2)+(O))-ZAN, 2 × Gluc-(+O)-ZAN, 2 × Gluc-(+(H2)+(O))-ZAN"}]}, {"smiles": "C[C@H]1CCCC(=O)CCC/C=C/c2cc(O)cc(O)c2C(=O)O1", "note": "[ZEN, zearalenone]", "values": [{"measurement": "Total Number of Glucuronides", "setting": "[5]", "value": 10}, {"measurement": "converted into glucoronides", "setting": "[5]", "value": 99, "unit": "%"}, {"measurement": "glucuronides of oxidized metabolites and double glucuronides (minor products)", "setting": "[5]", "value": 8, "unit": "%"}, {"measurement": "glucuronides of parent toxins at position C-14", "setting": "[5]", "value": 86, "unit": "%"}, {"measurement": "share of species, Figure 7 pie", "setting": "[5]", "value": 1, "unit": "%"}, {"measurement": "sum of parent glucuronides", "setting": "[5]", "value": 91, "unit": "%"}, {"measurement": "percentage of metabolized parent toxin in phase I reactions", "setting": "[1]; pH 7.4", "value": 27, "unit": "%"}, {"measurement": "Number of Metabolites (n): Desaturation oxidation, −(H2) +(O2)", "setting": "[1]; pH 7.4", "value": 0}, {"measurement": "Number of Metabolites (n): Desaturation, oxidation, −(H2) +(O)", "setting": "[1]; pH 7.4", "value": 1}, {"measurement": "Number of Metabolites (n): Desaturation, oxidation, −(H4) +(O)", "setting": "[1]; pH 7.4", "value": 0}, {"measurement": "Number of Metabolites (n): Oxidation, +(O2)", "setting": "[1]; pH 7.4", "value": 0}, {"measurement": "Number of Metabolites (n): Oxidation, −(H4) +(O2)", "setting": "[1]; pH 7.4", "value": 0}, {"measurement": "Number of Metabolites (n): Reduction, oxidation, +(H2) +(O)", "setting": "[1]; pH 7.4", "value": 2}, {"measurement": "share of Oxidation +(O) metabolites in ∑ n", "setting": "[1]; pH 7.4", "value": "9(75%)"}, {"measurement": "∑ n, total number of oxidized metabolites", "setting": "[1]; pH 7.4", "value": 12}, {"measurement": "LC-MS Library: metabolites generated", "setting": "[3]", "value": "Phase I metabolites: (-(H2) +(O))-ZEN, (+(O))-ZEN, (+(H2)+ (O))-ZEN Glucuronides: Gluc-16-ZEN, Gluc-14-ZEN, Gluc-(+O)-ZEN, 2xGluc-ZEN"}]}, {"smiles": "C[C@H]1CCC[C@H](O)CCCCCc2cc(O)cc(O)c2C(=O)O1", "note": "[α-ZAL, 7-α-hydroxy-zearalanol]", "values": [{"measurement": "percentage of metabolized parent toxin in phase I reactions", "setting": "[1]", "value": 29, "unit": "%"}]}, {"smiles": "C[C@H]1CCC[C@H](O)CCC/C=C/c2cc(O)cc(O)c2C(=O)O1", "note": "[α-ZOL, 7-α-hydroxy-zearalenol]", "values": [{"measurement": "percentage of metabolized parent toxin in phase I reactions", "setting": "[1]", "value": 70, "unit": "%"}]}, {"smiles": "C[C@H]1CCC[C@@H](O)CCCCCc2cc(O)cc(O)c2C(=O)O1", "note": "[β-ZAL, 7-β-hydroxy-zearalanol]", "values": [{"measurement": "percentage of metabolized parent toxin in phase I reactions", "setting": "[1]", "value": 23, "unit": "%"}]}]}
